The target in assay [1] is DNA-3-methyladenine glycosylase (Homo sapiens) (UniProt P29372). The settings on record: Compound Concentration 10.0 uM.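 Further: enzyme assay where MPG cuts a quenched duplex DNA oligonucleotide probe, paired with APE1 for strand incision and turnover, read as fluorescence at 594 nm.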
Assay [2] concerns the target T1, Adenine DNA glycosylase (Homo sapiens) (UniProt Q9UIF7).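 Further: human MUTYH activity read as 594 nm fluorescence from cleavage and release of a quenched DNA duplex, coupled with APE1 for strand incision, lower signal meaning inhibition.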
T1 sequence (whole entry): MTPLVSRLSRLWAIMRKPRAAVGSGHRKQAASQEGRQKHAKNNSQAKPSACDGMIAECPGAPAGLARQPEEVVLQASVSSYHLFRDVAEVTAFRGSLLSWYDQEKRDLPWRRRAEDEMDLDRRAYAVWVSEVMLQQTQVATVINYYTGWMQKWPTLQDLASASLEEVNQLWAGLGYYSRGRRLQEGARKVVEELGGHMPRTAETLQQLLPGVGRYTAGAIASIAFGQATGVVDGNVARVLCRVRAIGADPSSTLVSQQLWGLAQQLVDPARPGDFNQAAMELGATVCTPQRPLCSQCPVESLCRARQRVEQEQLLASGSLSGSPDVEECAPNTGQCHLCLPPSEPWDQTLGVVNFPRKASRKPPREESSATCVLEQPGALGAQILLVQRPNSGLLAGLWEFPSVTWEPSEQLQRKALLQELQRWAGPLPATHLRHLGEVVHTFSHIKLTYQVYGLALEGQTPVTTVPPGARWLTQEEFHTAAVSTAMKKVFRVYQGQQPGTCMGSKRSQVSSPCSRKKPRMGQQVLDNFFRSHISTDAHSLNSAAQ
Particulars: Compound Concentration 10.0 uM, Hit No.

In assay [3] the target is Endonuclease 8-like 1 (Homo sapiens) (UniProt Q96FI4). The settings on record: Compound Concentration 10.0 uM, Hit No.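 Further: fluorescence at 594 nm from quenched duplex DNA oligonucleotides released by NEIL1 cleavage and strand separation, reported as reduction of this enzyme activity.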
Assay [4] concerns the target T2, Endonuclease 8-like 2 (Homo sapiens) (UniProt Q969S2).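 Further: fluorescence at 594 nm reports NEIL2 cutting and release of a quenched double-stranded DNA oligo substrate, reduced signal read as inhibition.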
T2 sequence (whole entry): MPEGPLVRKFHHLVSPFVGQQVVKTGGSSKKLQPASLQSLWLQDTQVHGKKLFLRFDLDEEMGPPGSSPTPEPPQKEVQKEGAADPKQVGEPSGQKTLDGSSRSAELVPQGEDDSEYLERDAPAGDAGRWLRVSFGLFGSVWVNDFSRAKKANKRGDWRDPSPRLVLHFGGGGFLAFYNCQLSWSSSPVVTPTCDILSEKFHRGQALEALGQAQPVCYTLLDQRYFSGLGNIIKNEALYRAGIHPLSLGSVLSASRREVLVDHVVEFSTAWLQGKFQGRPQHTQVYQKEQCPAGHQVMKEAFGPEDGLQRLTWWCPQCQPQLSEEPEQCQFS
The settings on record: Compound Concentration 10.0 uM, Hit No.

Assay [5] addresses T3, Endonuclease III-like protein 1 (Homo sapiens) (UniProt P78549).
T3 sequence (whole entry): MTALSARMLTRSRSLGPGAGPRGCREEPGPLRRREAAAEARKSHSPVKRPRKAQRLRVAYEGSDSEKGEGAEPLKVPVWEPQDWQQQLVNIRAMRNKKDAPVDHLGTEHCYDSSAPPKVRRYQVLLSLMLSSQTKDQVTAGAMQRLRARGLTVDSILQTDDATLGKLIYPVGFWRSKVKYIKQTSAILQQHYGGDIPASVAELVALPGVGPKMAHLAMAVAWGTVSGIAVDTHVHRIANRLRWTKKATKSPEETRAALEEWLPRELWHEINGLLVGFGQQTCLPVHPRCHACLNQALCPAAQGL
The settings on record: Compound Concentration 10.0 uM, Hit No.

Assay [6] addresses N-glycosylase/DNA lyase (Homo sapiens) (UniProt O15527). Particulars: Compound Concentration 10.0 uM, Hit No.
In assay [7] the target is G/T mismatch-specific thymine DNA glycosylase (Homo sapiens) (UniProt Q13569). The settings on record: Compound Concentration 10.0 uM.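 Further: human TDG cleavage of quenched duplex DNA oligonucleotides coupled to APE1, strand release read as fluorescence at 594 nm, inhibition of TDG activity.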
Assay [8] addresses Methyl-CpG-binding domain protein 4 (Homo sapiens) (UniProt O95243). Particulars: Compound Concentration 10.0 uM, Hit No.
For assay [9], the target named is T4, Single-strand selective monofunctional uracil DNA glycosylase (Homo sapiens) (UniProt Q53HV7).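 Further: enzymatic SMUG1 assay coupled with APE1, reading fluorescence at 594 nm released when a quenched double-stranded DNA oligonucleotide substrate is cleaved and separated.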
T4 sequence (whole entry): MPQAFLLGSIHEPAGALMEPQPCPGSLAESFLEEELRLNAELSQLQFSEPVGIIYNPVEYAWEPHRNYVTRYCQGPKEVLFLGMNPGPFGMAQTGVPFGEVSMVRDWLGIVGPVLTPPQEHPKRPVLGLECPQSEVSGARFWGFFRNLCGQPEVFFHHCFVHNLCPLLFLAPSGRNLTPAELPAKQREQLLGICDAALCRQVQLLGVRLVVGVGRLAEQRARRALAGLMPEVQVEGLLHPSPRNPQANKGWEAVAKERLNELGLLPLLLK
The settings on record: Compound Concentration 10.0 uM, Hit No.

Assay [10] deals with Uracil-DNA glycosylase (Homo sapiens) (UniProt P13051). The settings on record: Compound Concentration 10.0 uM, Hit No.
Chain of Uracil-DNA glycosylase (Homo sapiens) (P13051 whole entry): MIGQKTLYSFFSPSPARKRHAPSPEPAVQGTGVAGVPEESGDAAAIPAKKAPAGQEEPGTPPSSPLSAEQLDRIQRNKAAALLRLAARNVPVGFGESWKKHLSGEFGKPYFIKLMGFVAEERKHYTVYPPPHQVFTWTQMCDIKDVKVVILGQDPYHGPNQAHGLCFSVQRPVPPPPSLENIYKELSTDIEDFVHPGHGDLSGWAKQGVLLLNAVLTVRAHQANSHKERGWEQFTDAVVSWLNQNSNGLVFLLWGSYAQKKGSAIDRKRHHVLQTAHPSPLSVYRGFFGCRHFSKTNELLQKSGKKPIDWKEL

Chain of G/T mismatch-specific thymine DNA glycosylase (Homo sapiens) (Q13569 whole entry, the tested form may be a part): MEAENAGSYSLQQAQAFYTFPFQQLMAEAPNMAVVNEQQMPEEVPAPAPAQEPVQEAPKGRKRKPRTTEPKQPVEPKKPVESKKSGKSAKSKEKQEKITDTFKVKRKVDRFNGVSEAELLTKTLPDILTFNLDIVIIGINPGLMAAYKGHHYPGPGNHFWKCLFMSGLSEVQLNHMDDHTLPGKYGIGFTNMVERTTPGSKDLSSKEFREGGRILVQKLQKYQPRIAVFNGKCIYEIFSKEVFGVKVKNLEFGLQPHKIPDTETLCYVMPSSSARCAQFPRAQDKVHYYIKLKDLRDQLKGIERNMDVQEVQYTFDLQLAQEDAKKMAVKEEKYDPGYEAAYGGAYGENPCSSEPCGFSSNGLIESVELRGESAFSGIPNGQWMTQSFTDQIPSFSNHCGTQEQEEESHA
Chain of N-glycosylase/DNA lyase (Homo sapiens) (O15527 whole entry): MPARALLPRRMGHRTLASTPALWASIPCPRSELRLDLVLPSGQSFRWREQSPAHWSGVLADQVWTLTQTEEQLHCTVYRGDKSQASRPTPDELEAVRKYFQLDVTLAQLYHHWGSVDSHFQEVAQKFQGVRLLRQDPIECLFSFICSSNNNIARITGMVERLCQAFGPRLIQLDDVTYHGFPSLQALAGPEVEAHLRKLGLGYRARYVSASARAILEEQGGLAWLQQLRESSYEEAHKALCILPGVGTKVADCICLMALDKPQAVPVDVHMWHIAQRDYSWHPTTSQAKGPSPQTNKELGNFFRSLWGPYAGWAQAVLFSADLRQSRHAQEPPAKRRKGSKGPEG
Chain of Methyl-CpG-binding domain protein 4 (Homo sapiens) (O95243 whole entry, the tested form may be a part): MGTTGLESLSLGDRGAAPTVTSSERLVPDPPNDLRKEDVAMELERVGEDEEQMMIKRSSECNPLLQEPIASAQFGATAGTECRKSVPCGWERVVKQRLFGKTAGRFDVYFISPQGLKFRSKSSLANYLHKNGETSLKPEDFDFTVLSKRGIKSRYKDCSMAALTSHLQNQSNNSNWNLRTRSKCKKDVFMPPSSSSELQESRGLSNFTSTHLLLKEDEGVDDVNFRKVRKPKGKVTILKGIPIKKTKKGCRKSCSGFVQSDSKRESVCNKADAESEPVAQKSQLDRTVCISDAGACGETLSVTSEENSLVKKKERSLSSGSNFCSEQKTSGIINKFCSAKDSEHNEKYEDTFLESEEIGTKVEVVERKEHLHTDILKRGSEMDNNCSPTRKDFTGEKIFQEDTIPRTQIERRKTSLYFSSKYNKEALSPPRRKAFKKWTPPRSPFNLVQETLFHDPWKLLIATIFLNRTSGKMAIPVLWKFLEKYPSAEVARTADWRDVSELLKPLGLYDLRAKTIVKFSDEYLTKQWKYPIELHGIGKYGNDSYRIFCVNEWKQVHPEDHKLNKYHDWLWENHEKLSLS
Chain of DNA-3-methyladenine glycosylase (Homo sapiens) (P29372 whole entry): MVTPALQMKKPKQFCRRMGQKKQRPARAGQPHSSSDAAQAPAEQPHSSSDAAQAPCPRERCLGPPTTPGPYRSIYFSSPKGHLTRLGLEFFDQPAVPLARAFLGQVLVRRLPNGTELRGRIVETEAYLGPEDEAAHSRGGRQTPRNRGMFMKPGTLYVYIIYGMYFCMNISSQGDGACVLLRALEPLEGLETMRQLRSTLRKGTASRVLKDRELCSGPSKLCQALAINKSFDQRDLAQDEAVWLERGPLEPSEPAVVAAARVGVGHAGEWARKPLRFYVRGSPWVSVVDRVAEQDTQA
Chain of Endonuclease 8-like 1 (Homo sapiens) (Q96FI4 whole entry): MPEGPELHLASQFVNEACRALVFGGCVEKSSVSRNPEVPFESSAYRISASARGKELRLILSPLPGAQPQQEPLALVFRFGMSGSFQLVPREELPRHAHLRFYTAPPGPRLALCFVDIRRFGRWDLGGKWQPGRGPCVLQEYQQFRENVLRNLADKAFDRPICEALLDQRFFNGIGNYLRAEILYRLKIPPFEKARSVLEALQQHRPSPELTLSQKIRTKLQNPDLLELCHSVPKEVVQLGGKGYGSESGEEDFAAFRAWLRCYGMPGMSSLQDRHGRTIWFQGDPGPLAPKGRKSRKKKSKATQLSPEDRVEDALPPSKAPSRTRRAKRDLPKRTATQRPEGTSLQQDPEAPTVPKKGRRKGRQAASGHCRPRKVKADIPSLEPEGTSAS

By inhibition is commonly meant the relative decrease from the control value, in per cent. `CCC(=O)OCC(=O)[C@@]1(OC(=O)CC)[C@@H](C)C[C@H]2[C@@H]3CCC4=CC(=O)C=C[C@]4(C)[C@@]3(Cl)[C@@H](O)C[C@@]21C`: the inhibition in [1] (Hit No) was 2.96%; in [2], 11.3%; in assay [3], 7.21%; in assay [4], 7%; in assay [5], 22.4%; in assay [6] it was -5.93%. In [7] (Hit No), the inhibition is -4.42%.

With `Cc1ccc(O)c([C@H](CCN(C(C)C)C(C)C)c2ccccc2)c1`, the inhibition was -5.07% in assay [1] (Hit No); 8.6% in assay [2]; 5.28% in assay [3]; 2.01% in assay [4]; -3.21% in [5]; -3.4% in [6]. In addition, the inhibition in assay [7] (Hit No) is 2.93%.

As to `NC(=O)c1ccc(CNC(=O)NC[C@H]2CN(Cc3ccc(Cl)c(Cl)c3)CCO2)cc1`, the inhibition in [1] (Hit No) is -0.36%; in [2] it was 5.52%; in assay [3], 7.06%; in [4] it was 16.2%; in assay [5], 15.8%; in assay [6], -7.25%. The inhibition in [7] (Hit No) is 19.2%.

For the compound `O=c1ccn([C@@H]2O[C@H](COP(=O)(O)OP(=O)(O)OP(=O)(O)OP(=O)(O)OC[C@H]3O[C@@H](n4ccc(=O)[nH]c4=O)[C@H](O)[C@@H]3O)[C@@H](O)[C@H]2O)c(=O)[nH]1`, the inhibition was 0.18% in assay [1] (Hit No); -6.25% in assay [2]; 3.21% in [3]; -3.48% in assay [4]; 20.2% in assay [5]; -1.8% in [6]. In addition, the inhibition in assay [7] (Hit No) was determined as 3.7%.

Regarding `Cc1ccccc1-c1cc(N2CCN(C)CC2)ncc1N(C)C(=O)C(C)(C)c1cc(C(F)(F)F)cc(C(F)(F)F)c1`, the inhibition in assay [1] (Hit No) is -7.15%; in [2], -1.13%; in [3], 0.537%; in assay [4], 1.76%; in [5] it was 21.7%; in assay [6] it was -7.29%. The inhibition in [7] (Hit No) is -5.37%.

`O=C(Nc1ccc(Cl)nc1)c1ccc(Cl)cc1`: the inhibition is 19.3% in assay [8]; 18.7% in assay [1] (Hit No); 26.6% in assay [2]; 6.68% in assay [3]; 5.25% in [4]; 6.76% in [6]. Besides, the inhibition in assay [9] was 3.71%; in assay [7] (Hit No), 21.2%; in [10], 1.37%.

As for `Cc1cnc(-c2cc(N3CCN(C(=O)CCS(C)(=O)=O)CC3)ncc2Cl)c(C)c1`, the inhibition in assay [1] (Hit No) was -9.96%; in assay [2] it was 0.917%; in assay [4], -4.23%; in [5], 15.8%; in [6], -3.06%.

Turning to `O=C(O)CC/C=C\C[C@@H]1CO[C@H](c2ccccc2Cl)O[C@@H]1c1ccccc1O`, the inhibition in assay [8] is 0.092%; in assay [1] (Hit No), 4.5%; in assay [2], 8.47%; in [3], -2.87%; in assay [4], 0.265%; in assay [6], -7.71%. Also, the inhibition was 0.5% in [9], 13.8% in assay [7] (Hit No) and -7.83% in [10].

In the case of `COc1cc2nc(N3CCN(C(=O)c4ccco4)CC3)nc(N)c2cc1OC`, the inhibition in [8] amounted to 7.24%; in assay [1] (Hit No) it was 11.1%; in [2] it was 14%; in assay [3], 5.73%; in [4], 10%; in assay [6] it was 0.771%. In addition, the inhibition in assay [9] is -2.6%; in assay [7] (Hit No) it was 4.76%; in [10] it was -8.11%.

Consider `COc1ccc(CNC(=O)c2cc(-c3cncc(Cl)c3)cnc2-c2ccccn2)nc1OC`, for which the inhibition in assay [8] is 0.324%; in assay [1] (Hit No), -0.668%; in assay [2], -1%; in [3], -8.51%; in assay [4], 6.5%; in assay [6], -1.43%. For the same compound, the values for the inhibition in [9], in [7] (Hit No) and in assay [10] were -1.29%, 11.4% and -5.71%, respectively.

Regarding `COCCn1c(C)c(C)s/c1=N\C(=O)C1C(C)(C)C1(C)C`, the inhibition in [8] is -7.23%; in assay [1] (Hit No), -8.69%; in assay [2], 20.8%; in [3] it was 3.06%; in [4] it was 1.51%; in [6] it was 5.33%. For the same compound, the inhibition in assay [9] was -0.421%; in assay [7] (Hit No), 7.06%; in assay [10] it was -7.32%.

For the compound `CCc1ccc(OCc2ccccc2C(=O)Nc2ccc3nc(C)cc(N)c3c2)cc1`, the inhibition was 43.2% in assay [8]; 71.5% in [1] (Hit Yes); 77.8% in assay [2]; -4.06% in [3]; 16.5% in [4]; 12.5% in [6]. Moreover, the results for the inhibition in assay [9], in [7] (Hit Yes) and in assay [10] were -3.13%, 82.5% and -2.29%, respectively.

Take `Cc1ccccc1C(=O)Nc1ccc(C(=O)N2CCCC(O)c3cc(Cl)ccc32)c(C)c1` (centres undefined): the inhibition in assay [8] is -1.3%; in [1] (Hit No), 0.836%; in assay [2] it was 12.2%; in assay [3], 6.76%; in [4] it was 1.01%; in [6] it was -1.2%. Also, the inhibition in assay [9] was -8.66%; in assay [7] (Hit No) it was 18.4%; in assay [10] it was -8.3%.

As to `Cn1c(SCc2ccc(C(C)(C)C)cc2)nc(N)cc1=O`, the inhibition was 12.4% in assay [8]; 9.09% in assay [1] (Hit No); 6.33% in assay [2]; -0.435% in assay [3]; 5.25% in [4]; -4.44% in [6]. For the same compound, the results for the inhibition in [9], in assay [7] (Hit No) and in assay [10] were -4.37%, 8.05% and -6.37%, respectively.

On to `C/C(=N\NC(=O)[C@@H]1C(=O)NC[C@H]1c1ccccc1)c1cccc(Br)c1`, for which the inhibition in [8] was 0.963%; in assay [1] (Hit No) it was -1.9%; in assay [2], 11%; in assay [3], -1.98%; in assay [4] it was 6.5%; in assay [6] it was -0.141%. Moreover, the inhibition in assay [9] is 9.22%; in assay [7] (Hit No), 17.2%; in assay [10], -1.98%.

Regarding `CSc1ccc(C(=O)N[C@@H]2CCCC[C@@H]2NC(=O)CNC(=O)c2cc(C(F)(F)F)ccc2NC(=O)NC(C)C)cc1`, the inhibition in [8] was 13.3%; in assay [1] (Hit No), -1.67%; in assay [2] it was 2.07%; in assay [3], 0.537%; in assay [4], 14.5%; in [6] it was -0.224%. The inhibition in assay [9] was 0.0151%; in assay [7] (Hit No), 20.7%; in assay [10] it was -0.695%.

For the compound `CCOc1nc2cccc(C(=O)O)c2n1Cc1ccc(-c2ccccc2-c2nnn[nH]2)cc1`, the inhibition in [8] is 1.2%; in assay [1] (Hit No), -3.68%; in assay [2] it was 2.84%; in assay [3], 2.02%; in assay [4] it was 7%; in [6] it was 0.813%. For the same compound, the inhibition in assay [9] was -0.0333%; in assay [7] (Hit No) it was 6.47%; in assay [10] it was -8.46%.
